From the NIST ThermoML archive (doi:10.1021/je800026p)

Assay: xn = mol fraction of the nth substance listed
Conditions: 101 kPa, Liquid; for speed of sound: Sing-around technique in a fixed-path interferometer; for mass density: Vibrating tube method

CCCCCCOCCOCCO [2-(2-hexyloxyethoxy)ethanol] + CCCCN
Conditions | mass density, 288.15 K [kg/m3] | mass density, 293.15 K [kg/m3] | mass density, 298.15 K [kg/m3] | mass density, 303.15 K [kg/m3] | mass density, 308.15 K [kg/m3] | speed of sound, 288.15 K [m/s] | speed of sound, 293.15 K [m/s] | speed of sound, 298.15 K [m/s] | speed of sound, 303.15 K [m/s] | speed of sound, 308.15 K [m/s]
x1 = 0.1165 | 788.964 | 784.34 | 779.774 | 775.186 | 770.602 | 1323 | 1302.2 | 1281.5 | 1260.8 | 1240.3
x1 = 0.1587 | 803.568 | 799.044 | 794.52 | 790 | 785.486 | 1332.3 | 1312 | 1291.7 | 1271.5 | 1251.3
x1 = 0.1943 | 814.988 | 810.552 | 806.078 | 801.606 | 797.118 | 1339.5 | 1319.7 | 1299.7 | 1279.8 | 1259.8
x1 = 0.2403 | 828.571 | 824.179 | 819.765 | 815.333 | 810.88 | 1348.2 | 1328.7 | 1309.1 | 1289.6 | 1270
x1 = 0.2974 | 843.631 | 839.297 | 834.939 | 830.566 | 826.173 | 1357.8 | 1338.8 | 1319.6 | 1300.6 | 1281.3
x1 = 0.3403 | 853.769 | 849.458 | 845.129 | 840.783 | 836.421 | 1364.2 | 1345.5 | 1326.6 | 1307.9 | 1288.9
x1 = 0.3916 | 864.666 | 860.386 | 856.092 | 851.78 | 847.457 | 1371.1 | 1352.6 | 1334.1 | 1315.7 | 1297.1
x1 = 0.4568 | 876.866 | 872.668 | 868.407 | 864.132 | 859.843 | 1378.6 | 1360.4 | 1342.2 | 1324.2 | 1306
x1 = 0.5105 | 885.772 | 881.607 | 877.388 | 873.158 | 868.903 | 1383.9 | 1365.9 | 1348 | 1330.1 | 1312.3
x1 = 0.5658 | 894.125 | 889.991 | 885.768 | 881.571 | 877.355 | 1388.5 | 1370.7 | 1353 | 1335.3 | 1317.8
x1 = 0.6081 | 900.031 | 895.896 | 891.728 | 887.547 | 883.355 | 1391.5 | 1373.9 | 1356.3 | 1338.8 | 1321.2
x1 = 0.6559 | 906.287 | 902.162 | 898.025 | 893.876 | 889.716 | 1394.5 | 1376.9 | 1359.5 | 1342.1 | 1324.9
x1 = 0.6977 | 911.396 | 907.303 | 903.194 | 899.074 | 894.942 | 1396.7 | 1379.2 | 1361.8 | 1344.5 | 1327.5
x1 = 0.7402 | 916.322 | 912.248 | 908.162 | 904.067 | 899.964 | 1398.6 | 1381.2 | 1363.9 | 1346.7 | 1329.8
x1 = 0.8029 | 923 | 918.949 | 914.893 | 910.805 | 906.755 | 1400.8 | 1383.5 | 1366.4 | 1349.3 | 1332.5
x1 = 0.8675 | 928.954 | 924.929 | 920.91 | 916.89 | 912.833 | 1402.5 | 1385.4 | 1368.3 | 1351.4 | 1334.6
x1 = 0.9082 | 932.126 | 928.121 | 924.113 | 920.095 | 916.07 | 1403.4 | 1386.3 | 1369.3 | 1352.4 | 1335.7
x1 = 0.9635 | 935.472 | 931.477 | 927.494 | 923.492 | 919.484 | 1404.3 | 1387.4 | 1370.4 | 1353.6 | 1336.8
